Measurements taken from US9198902B2, “1,4-dihydropyridine-3,5-dicarboxylate derivatives and preparation and use thereof” (Xuanzhu Pharma Co., Ltd., priority 2011, dated 2015).

Tests used:
SHRs = assay: In vivo hypotensive activity in SHRs, DSI implant-type remote blood pressure measurement; set-up: species or system rats; settings: male SHRs, 10 mg/kg po, monitored 24 hours
Method: The in vivo hypotensive activity assay was conducted according to DSI experimental procedure with reference to page 56 of WO 2009/056934 A1. The agents to be tested, lercanidipine, barnidipine, amlodipine, azelnidipine, efonidipine and manidipine, were accurately weighed. Each agent was dissolved in DMSO. To the resulting solution was added 50% of the corresponding volume of PEG400 so that the final concentration of each agent was 1 mg/ml, and the final concentration of DMSO was 3%. […] Each compound was dissolved in DMSO. […] The compound to be tested, Compound 15, was accurately weighed. This compound was dissolved in DMSO. […] The compound to be tested, Compound 16 (optical activity)+108.34° and Compound 17 (optical activity optical activity)+36.4°, were accurately weighed. […] The test for hypotensive effect: Male SHRs were subjected to an abdominal aorta implantation using an implant, and used in the test after 7-10 days of recovery. The administration was an intragastric administration. One hour before the administration, the measured blood pressure was used as the pre-administration basic blood pressure value. After the administration, SHRs, allowed free access to the diet, were continuously monitored with a DSI implant-type blood pressure remote measurement system for 24 hours.

[1] = biological target: L-type calcium ion channels (Cavia porcellus, UniProt O35505); assay: L-type calcium ion channel inhibition, whole cell patch-clamp (electrophysiological method); assay type: cell-based; settings: left ventricle muscle cells of guinea pigs, room temperature
L-type calcium ion channels, sequence (O35505 whole entry): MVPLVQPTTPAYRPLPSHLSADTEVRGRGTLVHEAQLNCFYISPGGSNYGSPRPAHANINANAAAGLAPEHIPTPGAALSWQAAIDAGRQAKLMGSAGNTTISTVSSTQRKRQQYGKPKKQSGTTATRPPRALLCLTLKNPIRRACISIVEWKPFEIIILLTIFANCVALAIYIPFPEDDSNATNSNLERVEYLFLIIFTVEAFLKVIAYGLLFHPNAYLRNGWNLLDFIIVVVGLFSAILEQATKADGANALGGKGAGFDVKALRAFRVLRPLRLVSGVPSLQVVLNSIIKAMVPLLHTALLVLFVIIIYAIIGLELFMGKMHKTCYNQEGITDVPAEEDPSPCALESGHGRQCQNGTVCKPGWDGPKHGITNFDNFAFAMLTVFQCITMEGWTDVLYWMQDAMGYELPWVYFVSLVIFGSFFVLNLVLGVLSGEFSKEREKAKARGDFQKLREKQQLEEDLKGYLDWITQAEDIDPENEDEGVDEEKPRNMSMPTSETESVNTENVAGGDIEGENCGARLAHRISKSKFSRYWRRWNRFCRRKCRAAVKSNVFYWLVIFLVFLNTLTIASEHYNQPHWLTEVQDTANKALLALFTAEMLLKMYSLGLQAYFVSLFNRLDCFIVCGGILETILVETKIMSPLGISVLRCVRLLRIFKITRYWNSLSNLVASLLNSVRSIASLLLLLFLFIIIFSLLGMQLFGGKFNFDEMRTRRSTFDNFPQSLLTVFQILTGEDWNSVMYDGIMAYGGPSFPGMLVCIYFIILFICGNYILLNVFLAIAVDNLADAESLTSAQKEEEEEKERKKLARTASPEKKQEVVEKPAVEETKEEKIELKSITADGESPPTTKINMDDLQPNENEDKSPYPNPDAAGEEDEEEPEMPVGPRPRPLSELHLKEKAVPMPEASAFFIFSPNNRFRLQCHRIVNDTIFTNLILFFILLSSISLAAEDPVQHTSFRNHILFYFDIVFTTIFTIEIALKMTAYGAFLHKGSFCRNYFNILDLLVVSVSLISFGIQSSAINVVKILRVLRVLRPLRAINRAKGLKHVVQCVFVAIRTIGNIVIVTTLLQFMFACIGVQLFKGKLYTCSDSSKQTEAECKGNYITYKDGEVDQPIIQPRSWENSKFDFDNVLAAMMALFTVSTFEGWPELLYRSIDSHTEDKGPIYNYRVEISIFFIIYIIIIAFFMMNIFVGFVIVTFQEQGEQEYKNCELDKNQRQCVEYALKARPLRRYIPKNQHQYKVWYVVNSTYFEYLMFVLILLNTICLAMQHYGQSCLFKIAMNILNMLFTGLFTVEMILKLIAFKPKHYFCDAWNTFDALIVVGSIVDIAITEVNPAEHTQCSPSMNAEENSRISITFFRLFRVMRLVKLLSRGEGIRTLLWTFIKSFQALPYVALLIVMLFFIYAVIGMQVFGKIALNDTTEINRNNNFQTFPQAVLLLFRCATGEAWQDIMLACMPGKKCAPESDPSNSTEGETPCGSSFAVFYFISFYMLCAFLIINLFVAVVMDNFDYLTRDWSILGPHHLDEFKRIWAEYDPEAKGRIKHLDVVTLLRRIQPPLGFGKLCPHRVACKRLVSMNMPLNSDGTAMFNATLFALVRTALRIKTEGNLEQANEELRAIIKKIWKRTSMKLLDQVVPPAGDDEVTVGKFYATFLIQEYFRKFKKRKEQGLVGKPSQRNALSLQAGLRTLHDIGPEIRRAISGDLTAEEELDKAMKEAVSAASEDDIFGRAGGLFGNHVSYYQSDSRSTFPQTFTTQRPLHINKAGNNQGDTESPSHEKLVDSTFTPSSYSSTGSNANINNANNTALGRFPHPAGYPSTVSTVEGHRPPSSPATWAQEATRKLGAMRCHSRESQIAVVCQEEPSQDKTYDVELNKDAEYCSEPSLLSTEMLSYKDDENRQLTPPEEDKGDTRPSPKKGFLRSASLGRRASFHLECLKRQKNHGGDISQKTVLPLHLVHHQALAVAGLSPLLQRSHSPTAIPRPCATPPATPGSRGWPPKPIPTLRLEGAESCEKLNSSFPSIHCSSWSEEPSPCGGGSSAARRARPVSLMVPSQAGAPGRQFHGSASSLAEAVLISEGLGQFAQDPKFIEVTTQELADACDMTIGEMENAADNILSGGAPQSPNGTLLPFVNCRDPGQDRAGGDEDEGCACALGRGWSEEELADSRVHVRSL
Excerpt: 2. Test for L- and T-Type Calcium Ion Channel Inhibitors
This experiment was assigned to HD Biosciences Corporation (Shanghai) and conducted with an electrophysiological method.
It was done with reference to the method as disclosed by Jung-Ha Lee, et. al., “Identification of T-Type α1H Ca^2+ Channels (Cav3.2) in Major Pelvic Ganglion Neurons”. J Neurophysiol 87:2844-2850, 2002.
Test samples were weighed accurately and diluted in a 3-fold stepwise dilution so that the final concentrations were as follows:
L-type test: Left ventricle muscle cells were separated from guinea pigs. The cells were used in the experiment in eight hours. The ionic current of a single cell was recorded by applying the whole cell patch-clamp technique at room temperature, wherein the clamp current was −80 mV, and the pulse interval was 10 s. The inward current (the activiation was started from 0 mV) is the L-type calcium current (ICa,L).
The electrode inner liquid (mM): CsCl 120, TEA-Cl 20, CaCl2 1, EGTA-CsOH 11, Hepes 10, Mg-ATP 5, pH7.3;
The electrode outer liquid (mM): NaCl 135, CsCl 5.4, CaCl2 1.8, MgCl2 1, Hepes 5, glucose 10, pH7.4.

Human Cav3.2 = Human Cav3.2 (Homo sapiens, UniProt O95180); assay: T-type calcium ion channel inhibition, FLIPR method; assay type: cell-based; settings: Human Cav3.2 in stable HEK-293 cells, FLIPR Calcium 4 No-Wash kit
Human Cav3.2, sequence (O95180 whole entry): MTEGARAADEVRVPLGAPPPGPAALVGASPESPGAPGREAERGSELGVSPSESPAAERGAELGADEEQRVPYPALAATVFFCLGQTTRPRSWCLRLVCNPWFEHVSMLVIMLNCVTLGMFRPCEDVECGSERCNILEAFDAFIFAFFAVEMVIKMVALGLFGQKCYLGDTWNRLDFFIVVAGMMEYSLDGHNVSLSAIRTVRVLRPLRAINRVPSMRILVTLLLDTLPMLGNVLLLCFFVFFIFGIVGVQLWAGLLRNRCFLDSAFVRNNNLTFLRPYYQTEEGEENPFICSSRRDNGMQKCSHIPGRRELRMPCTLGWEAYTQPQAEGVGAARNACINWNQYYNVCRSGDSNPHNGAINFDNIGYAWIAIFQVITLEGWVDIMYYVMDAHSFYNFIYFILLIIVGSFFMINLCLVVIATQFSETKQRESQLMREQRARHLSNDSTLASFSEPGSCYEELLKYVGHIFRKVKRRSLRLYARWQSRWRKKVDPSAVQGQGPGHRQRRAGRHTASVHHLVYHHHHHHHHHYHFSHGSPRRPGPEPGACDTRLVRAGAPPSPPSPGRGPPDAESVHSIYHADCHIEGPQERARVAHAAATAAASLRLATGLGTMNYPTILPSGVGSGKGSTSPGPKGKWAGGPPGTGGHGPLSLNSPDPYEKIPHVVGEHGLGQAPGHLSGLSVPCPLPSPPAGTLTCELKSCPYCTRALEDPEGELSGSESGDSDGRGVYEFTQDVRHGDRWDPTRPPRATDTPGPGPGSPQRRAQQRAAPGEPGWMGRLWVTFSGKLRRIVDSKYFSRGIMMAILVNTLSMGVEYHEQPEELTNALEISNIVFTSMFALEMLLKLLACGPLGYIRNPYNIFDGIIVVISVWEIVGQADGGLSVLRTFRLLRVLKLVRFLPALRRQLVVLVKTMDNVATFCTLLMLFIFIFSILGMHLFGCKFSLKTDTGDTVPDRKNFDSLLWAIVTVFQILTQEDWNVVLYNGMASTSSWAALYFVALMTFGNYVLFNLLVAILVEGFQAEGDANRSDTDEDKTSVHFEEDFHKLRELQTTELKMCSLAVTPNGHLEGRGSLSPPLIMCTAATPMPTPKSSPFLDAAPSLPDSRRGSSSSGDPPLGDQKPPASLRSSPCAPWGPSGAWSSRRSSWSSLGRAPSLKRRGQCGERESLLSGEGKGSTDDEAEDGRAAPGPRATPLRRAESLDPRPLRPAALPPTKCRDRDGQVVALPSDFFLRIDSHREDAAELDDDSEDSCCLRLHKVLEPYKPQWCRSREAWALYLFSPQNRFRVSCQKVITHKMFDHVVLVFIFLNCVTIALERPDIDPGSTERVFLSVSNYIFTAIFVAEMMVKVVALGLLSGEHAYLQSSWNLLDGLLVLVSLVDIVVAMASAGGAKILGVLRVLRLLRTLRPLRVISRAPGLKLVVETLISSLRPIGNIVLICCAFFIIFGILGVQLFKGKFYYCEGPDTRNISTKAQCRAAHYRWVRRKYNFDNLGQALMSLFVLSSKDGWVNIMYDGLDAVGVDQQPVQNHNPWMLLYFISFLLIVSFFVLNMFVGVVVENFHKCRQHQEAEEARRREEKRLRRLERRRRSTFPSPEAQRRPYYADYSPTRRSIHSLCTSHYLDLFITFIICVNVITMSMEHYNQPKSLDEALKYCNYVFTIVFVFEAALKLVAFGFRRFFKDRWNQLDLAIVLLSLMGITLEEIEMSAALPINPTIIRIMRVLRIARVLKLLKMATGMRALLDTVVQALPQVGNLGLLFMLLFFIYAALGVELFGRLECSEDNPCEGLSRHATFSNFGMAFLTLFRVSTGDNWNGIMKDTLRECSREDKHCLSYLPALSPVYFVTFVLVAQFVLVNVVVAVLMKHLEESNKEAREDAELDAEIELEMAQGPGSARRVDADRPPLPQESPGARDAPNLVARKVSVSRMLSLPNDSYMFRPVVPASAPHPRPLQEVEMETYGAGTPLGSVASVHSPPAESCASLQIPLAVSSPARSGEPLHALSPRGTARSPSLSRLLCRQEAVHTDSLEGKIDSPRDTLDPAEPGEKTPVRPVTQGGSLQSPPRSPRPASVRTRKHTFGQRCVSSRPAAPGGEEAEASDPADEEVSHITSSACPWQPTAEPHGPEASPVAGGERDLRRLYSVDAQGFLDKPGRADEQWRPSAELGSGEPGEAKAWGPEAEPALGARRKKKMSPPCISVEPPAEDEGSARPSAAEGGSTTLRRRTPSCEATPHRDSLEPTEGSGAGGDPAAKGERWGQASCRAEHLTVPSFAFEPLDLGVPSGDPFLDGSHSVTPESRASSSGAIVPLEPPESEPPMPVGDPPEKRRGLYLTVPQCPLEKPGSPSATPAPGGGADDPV
Method: T-type tests for Compound 19 and Compound 20 were assigned to Chan Test Corporation, and conducted according to the FLIPR experimental procedure as follows.
It was done with reference to the method disclosed on page 48 of WO 2009/056934 A1.
Samples were weighed accurately and diluted in a 3-fold stepwise dilution so that the final concentrations were as follows: 100 μM, 30 μM, 10 μM, 3 μM, 1 μM, 0.3 μM, 0.1 μM, 0.03 μM, 0.01 μM, 0.003 μM.
T-type test: Human Cav3.2 was cloned in stable HEK-293 cells, and then the operation was conducted with FLIPR Calcium 4 No-Wash kit. The cell medium was removed. To an HEPES solution free of calcium ion was added 20 μL dye to dye for 30 minutes at a temperature of 37° C. This buffer free of calcium ion included NaCl, 137 mM; KCl, 0.5 mM; MgCl2 mM, 1 mM; HEPES, 10 mM; glucose, 10 mM. The pH value was adjusted to 7.4 with NaOH. After 30 minutes, the buffer was placed at room temperature for 30 minutes. Then 5 μL of compound to be tested, solvent or blank control were added. The compound was formulated with a buffer containing calcium ion, said buffer including KCl, 135 mM; CaCl2, 10.8 mM; MgCl2, 1 mM; HEPES, 10 mM; glucose, 10 mM. The collected fluorescence values were analyzed and the inhibition ratios were calculated.

[2] = test system: SHRs (spontaneous hypertensive rats); assay: In vivo hypotensive activity in SHRs, tail-pinch method; settings: male SHRs, 10 mg/kg po; for Max ΔMAP (mmHg ± SEM): measured 1-24 h after administration
Method: The in vivo hypotensive activity assay was conducted according to the tail-pinch method with reference to Folia pharmacol. Japon. 97, 115-126 (1991).
The agents to be tested, lercanidipine, barnidipine, amlodipine, azelnidipine, efonidipine and manidipine, were accurately weighed respectively. Each agent was dissolved in DMSO. To the resulting solution was added 50% of the corresponding volume of PEG400 so that the final concentration of each agent was 1 mg/ml, and the final concentration of DMSO was 3%.
The compounds to be tested, Compound 18, Compound 21, Compound 22, Compound 23, and Compound 26, were accurately weighed respectively. Each compound was dissolved in DMSO. To the resulting solution was added 50% of the corresponding volume of PEG400 so that the final concentration of each compound was 1 mg/ml, and the final concentration of DMSO was 3%.
The compounds to be tested, Compound 19 and Compound 20, were accurately weighed respectively. Each compound was suspended in 0.5% MC so that the final concentration of each compound was 1 mg/ml.
The test for hypotensive effect: Male SHRs (spontaneous hypertensive rats) were randomly allocated into a control group and an administration group. The administration was an intragastric administration. One hour before the administration, the measured blood pressure was used as the pre-administration basic blood pressure value. After the administration, the contractive pressure, the heart rate and the mean arterial pressure of SHRs at six time points, i.e. 1, 2, 4, 6, 8 and 24 hours after the administration, were measured with a Softron BP-98A non-invasive blood pressure instrument respectively.

| SMILES | Max ΔMAP (mmHg ± SEM) (SHRs) [mmHg] | ΔMAP > 20 (mmHg) Duration time of action (SHRs) [h] | IC50 [1] [µM] | IC50 (Human Cav3.2) [µM] | ΔMAP > 20 (mmHg) Duration time of action [2] [h] | Max ΔMAP (mmHg ± SEM) [2] [mmHg] |
| --- | --- | --- | --- | --- | --- | --- |
| COC(=O)C1=C(C)NC(C)=C(C(=O)OC2(C)CCN(Cc3ccccc3)C2)C1c1cccc([N+](=O)[O-])c1 (stereo not shown) [Compound 1, 3-(1-benzyl-3-methylpyrrolidin-3-yl) 5-methyl 2,6-dimethyl-4-(3-nitrophenyl)-1,4-dihydropyridine-3,5-dicarboxylate] | 47 ± 7 | 6 |  |  |  |  |
| COC(=O)C1=C(C)NC(C)=C(C(=O)OC2(C)CCN(CCC(c3ccccc3)c3ccccc3)C2)C1c1cccc([N+](=O)[O-])c1 (stereo not shown) [Compound 2, 3-[1-(3,3-diphenylpropyl)-3-methylpyrrolidin-3-yl] 5-methyl 2,6-dimethyl-4-(3-nitrophenyl)-1,4-dihydropyridine-3,5-dicarboxylate] | 53 ± 7 | 16 |  |  |  |  |
| COC(=O)C1=C(C)NC(C)=C(C(=O)OC2(C)CCN(CCC(c3ccccc3)c3ccccc3)C2)[C@@H]1c1cccc([N+](=O)[O-])c1 (stereo partly drawn) [Compound 14, (4R)-3-[1-(3,3-diphenylpropyl)-3-methylpyrrolidin-3-yl] 5-methyl 2,6-dimethyl-4-(3-nitrophenyl)-1,4-dihydropyridine-3,5-dicarboxylate] |  |  | 0.59 |  |  |  |
| COC(=O)C1=C(C)NC(C)=C(C(=O)OC2(C)CCN(CCC(c3ccccc3)c3ccccc3)C2)[C@H]1c1cccc([N+](=O)[O-])c1 (stereo partly drawn) [Compound 15, (4S)-3-[1-(3,3-diphenylpropyl)-3-methylpyrrolidin-3-yl] 5-methyl 2,6-dimethyl-4-(3-nitrophenyl)-1,4-dihydropyridine-3,5-dicarboxylate] | 56 ± 1 | 14 | 1.28 |  |  |  |
| COC(=O)C1=C(C)NC(C)=C(C(=O)O[C@]2(C)CCN(CCC(c3ccccc3)c3ccccc3)C2)[C@H]1c1cccc([N+](=O)[O-])c1 [Compound 17, (S)-3-[(R)-1-(3,3-diphenylpropyl)-3-methylpyrrolidin-3-yl] 5-methyl 2,6-dimethyl-4-(3-nitrophenyl)-1,4-dihydropyridine-3,5-dicarboxylate] | 57 ± 5 | 16 | 0.93 | 9.41 |  |  |
| COC(=O)C1=C(C)NC(C)=C(C(=O)OC2(C)CCN(CC(c3ccccc3)c3ccccc3)C2)[C@H]1c1cccc([N+](=O)[O-])c1 (stereo partly drawn) [Compound 18, (4S)-3-[1-(2,2-diphenylethyl)-3-methylpyrrolidin-3-yl] 5-methyl 2,6-dimethyl-4-(3-nitrophenyl)-1,4-dihydropyridine-3,5-dicarboxylate] |  |  |  |  | 24 | 69 ± 4 |
| COC(=O)C1=C(C)NC(C)=C(C(=O)O[C@]2(C)CCN(CC(c3ccccc3)c3ccccc3)C2)[C@H]1c1cccc([N+](=O)[O-])c1 [Compound 19, (S)-3-[(R)-1-(2,2-diphenylethyl)-3-methylpyrrolidin-3-yl] 5-methyl 2,6-dimethyl-4-(3-nitrophenyl)-1,4-dihydropyridine-3,5-dicarboxylate] |  |  |  | 75.4 | 24 | 72 ± 8 |
| COC(=O)C1=C(C)NC(C)=C(C(=O)O[C@@]2(C)CCN(CC(c3ccccc3)c3ccccc3)C2)[C@H]1c1cccc([N+](=O)[O-])c1 [Compound 20, (S)-3-[(S)-1-(2,2-diphenylethyl)-3-methylpyrrolidin-3-yl] 5-methyl 2,6-dimethyl-4-(3-nitrophenyl)-1,4-dihydropyridine-3,5-dicarboxylate] |  |  |  | 66.9 | 24 | 80 ± 14 |
| COC(=O)C1=C(C)NC(C)=C(C(=O)OC2(C)CCN(CCCc3ccccc3)C2)[C@H]1c1cccc([N+](=O)[O-])c1 (stereo partly drawn) [Compound 21, (4S)-3-[3-methyl-1-(3-phenylpropyl)pyrrolidin-3-yl] 5-methyl 2,6-dimethyl-4-(3-nitrophenyl)-1,4-dihydropyridine-3,5-dicarboxylate] |  |  |  |  | 24 | 28 ± 12 |
| COC(=O)C1=C(C)NC(C)=C(C(=O)OC2(C)CCN(CCc3ccccc3)C2)[C@H]1c1cccc([N+](=O)[O-])c1 (stereo partly drawn) [Compound 22, (4S)-3-(3-methyl-1-phenylethylpyrrolidin-3-yl) 5-methyl 2,6-dimethyl-4-(3-nitrophenyl)-1,4-dihydropyridine-3,5-dicarboxylate] |  |  |  |  | 24 | 43 ± 7 |
| COC(=O)C1=C(C)NC(C)=C(C(=O)OC2(C)CCN(Cc3cc(F)cc(F)c3)C2)[C@H]1c1cccc([N+](=O)[O-])c1 (stereo partly drawn) [Compound 23, (4S)-3-[1-(3,5-difluorobenzyl)-3-methylpyrrolidin-3-yl]5-methyl 2,6-dimethyl-4-(3-nitrophenyl)-1,4-dihydropyridine-3,5-dicarboxylate] |  |  |  |  | 24 | 60 ± 12 |
| COC(=O)C1=C(C)NC(C)=C(C(=O)OC2(C)CCN(C(c3ccccc3)c3ccccc3)C2)[C@H]1c1cccc([N+](=O)[O-])c1 (stereo partly drawn) [Compound 26, (4S)-3-[1-diphenylmethyl-3-methylpyrrolidin-3-yl]5-methyl 2,6-dimethyl-4-(3-nitrophenyl)-1,4-dihydropyridine-3,5-dicarboxylate] |  |  |  |  | 24 | 55 ± 13 |
| CC1=C(C(=O)OC(C)C)C(c2cccc([N+](=O)[O-])c2)C(C(=O)OC2CN(C(c3ccccc3)c3ccccc3)C2)=C(N)N1 (stereo not shown) [azelnidipine, reference compound] | 40 ± 5 | 11 | 1.39 |  | 24 | 79 ± 13 |
| CC1=C(C(=O)OCCN(Cc2ccccc2)c2ccccc2)C(c2cccc([N+](=O)[O-])c2)C(P2(=O)OCC(C)(C)CO2)=C(C)N1 (stereo not shown) [efonidipine, reference compound] |  |  |  |  | 10 | 69 ± 5 |
| COC(=O)C1=C(C)NC(C)=C(C(=O)OCCN2CCN(C(c3ccccc3)c3ccccc3)CC2)C1c1cccc([N+](=O)[O-])c1 (stereo not shown) [manidipine, reference compound] |  |  |  |  | 23 | 74 ± 5 |
